From US8299252B2, “Pyrazolopyridine and pyrrolopyridine multikinase inhibitors” (Chugai Seiyaku Kabushiki Kaisha, priority 2005, dated 2012)
In brackets after ≈: the same amount, converted by molar mass.

Experiments:
[1] = test system: human colon cancer cell line HCT116 cells; experiment: Cell proliferation inhibitory activity, HCT116; format: cell-based; details: Homo sapiens, HCT-116, read-out: 50% proliferation inhibitory concentration (IC50 value) HCT116; HCT116, 72 hours, WST-8
Experimental: (§1) The compounds according to the present invention were measured for cancer cell proliferation inhibitory activity and human umbilical vein endothelial cell (HUVEC) proliferation inhibitory activity.
(§2) Test compounds were serially diluted with dimethyl sulfoxide and then diluted 50 times with Ca^2+- and Mg^2+-free phosphate-buffered saline, and 20 μL of each of the resulting solution was dispensed into a 96-well plate. […] Each cell suspension contains approximately 3000 cells/180 μL. These cell suspensions were dispensed to the plate containing the test compounds at 180 μL/well and incubated in a 5% carbon dioxide gas incubator at 37° C. for 72 hours. 20 μL of WST-8 (HCT116, Dojin) or WST-1 (HUVEC, Roche Diagnostics) was added to each well, and absorbance at 450 nm (reference wavelength: 650 nm) was measured.

[2] = test system: human umbilical vein endothelial cells (HUVEC), VEGF-dependent proliferation; experiment: VEGF-dependent HUVEC proliferation inhibition assay; format: cell-based; details: read-out: 50% proliferation inhibitory concentration (IC50 value) HUVEC (VEGF-dependent), 20 ng/mL of VEGF, 72 hours, WST-1
Experimental: as §1, §2

[3] = test system: human umbilical vein endothelial cells (HUVEC), VEGF-independent proliferation; experiment: VEGF-independent HUVEC proliferation inhibition assay; format: cell-based; details: read-out: 50% proliferation inhibitory concentration (IC50 value) HUVEC (VEGF-independent), vascular endothelial cell growth-promoting agent and heparin, 72 hours, WST-1
Experimental: as §1, §2

[4] = test system: tube formation of human-derived vascular endothelial cells (HUVEC); experiment: Tube formation inhibition test (angiogenesis assay kit, KURABO); format: cell-based; details: 264 h, final concentration 6.4 nM, 11 days, read-out: Tube formation inhibition ratio (%)
Experimental: The formed tubes were stained with a tube staining kit CD31 (KURABO). The stain image of each well was taken under a microscope, stored in an image file, and measured for the tube formation area using angiogenesis quantitative analysis software of KURABO. The inhibition ratio % of each test compound added to the well was calculated, provided that the ratio of the reference was 100%.

[5] = target: T1, FLT3 intracellular domain protein (Homo sapiens, UniProt P36888); experiment: Flt3 enzyme inhibition test (HTRF); format: biochemical; details: phosphorylation of biotinylated peptide
T1 sequence (P36888 564-993 limits assumed): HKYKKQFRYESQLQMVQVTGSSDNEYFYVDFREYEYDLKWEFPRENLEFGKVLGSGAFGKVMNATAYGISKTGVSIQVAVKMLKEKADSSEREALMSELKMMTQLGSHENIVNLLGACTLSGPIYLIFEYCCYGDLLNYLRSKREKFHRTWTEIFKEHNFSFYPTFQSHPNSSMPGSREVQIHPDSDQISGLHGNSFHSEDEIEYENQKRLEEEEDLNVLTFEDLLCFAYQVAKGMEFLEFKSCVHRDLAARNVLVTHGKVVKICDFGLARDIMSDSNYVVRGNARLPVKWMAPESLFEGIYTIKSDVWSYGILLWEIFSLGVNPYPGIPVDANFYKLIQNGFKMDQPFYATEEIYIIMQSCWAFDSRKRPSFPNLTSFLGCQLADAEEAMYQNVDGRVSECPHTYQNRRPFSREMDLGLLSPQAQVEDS
Experimental: The FLT3 inhibitory activity was measured by the activity of FLT3 intracellular domain protein inhibiting for phosphorylation of a biotinylated peptide ([…]).

[6] = target: Raf-1 (Homo sapiens, UniProt P04049); experiment: Raf-1 enzyme inhibition assay (MEK-1 phosphorylation, HTRF); format: biochemical; details: phosphorylation of His6-MEK-1
Sequence of Raf-1 (P04049 whole entry): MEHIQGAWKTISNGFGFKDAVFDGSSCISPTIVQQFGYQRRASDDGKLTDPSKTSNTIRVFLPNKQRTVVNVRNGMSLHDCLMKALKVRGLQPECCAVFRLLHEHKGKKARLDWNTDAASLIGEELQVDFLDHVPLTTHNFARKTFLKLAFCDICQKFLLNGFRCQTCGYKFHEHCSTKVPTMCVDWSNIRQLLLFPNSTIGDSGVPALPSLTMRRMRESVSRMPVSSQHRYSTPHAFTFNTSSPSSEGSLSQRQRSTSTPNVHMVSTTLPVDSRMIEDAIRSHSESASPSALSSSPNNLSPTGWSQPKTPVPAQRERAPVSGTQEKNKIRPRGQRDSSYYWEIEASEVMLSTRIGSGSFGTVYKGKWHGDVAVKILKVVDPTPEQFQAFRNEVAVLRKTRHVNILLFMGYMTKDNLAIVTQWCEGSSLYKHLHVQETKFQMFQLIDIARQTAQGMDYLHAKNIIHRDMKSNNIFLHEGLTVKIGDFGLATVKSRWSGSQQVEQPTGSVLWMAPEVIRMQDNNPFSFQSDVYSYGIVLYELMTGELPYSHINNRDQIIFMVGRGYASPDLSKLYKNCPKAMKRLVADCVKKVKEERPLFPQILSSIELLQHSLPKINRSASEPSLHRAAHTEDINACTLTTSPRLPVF
Experimental: (§3) The compounds according to the present invention were measured for Raf-1 and KDR enzyme inhibitory activities.
(§4) The Raf-1 inhibitory activity was measured by the activity of Raf-1 protein for inhibiting phosphorylation of MEK-1 protein having six histidine residues (His6) fused to the N-terminus thereof. […] The KDR inhibitory activity was measured by the activity of KDR intracellular domain protein for inhibiting phosphorylation of a biotinylated peptide ([…]).

[7] = target: KDR intracellular domain protein (Homo sapiens, UniProt P35968); experiment: KDR enzyme inhibition assay (biotinylated peptide phosphorylation, HTRF); format: biochemical; details: phosphorylation of biotinylated peptide
Sequence of KDR intracellular domain protein (P35968 786-1356 limits assumed): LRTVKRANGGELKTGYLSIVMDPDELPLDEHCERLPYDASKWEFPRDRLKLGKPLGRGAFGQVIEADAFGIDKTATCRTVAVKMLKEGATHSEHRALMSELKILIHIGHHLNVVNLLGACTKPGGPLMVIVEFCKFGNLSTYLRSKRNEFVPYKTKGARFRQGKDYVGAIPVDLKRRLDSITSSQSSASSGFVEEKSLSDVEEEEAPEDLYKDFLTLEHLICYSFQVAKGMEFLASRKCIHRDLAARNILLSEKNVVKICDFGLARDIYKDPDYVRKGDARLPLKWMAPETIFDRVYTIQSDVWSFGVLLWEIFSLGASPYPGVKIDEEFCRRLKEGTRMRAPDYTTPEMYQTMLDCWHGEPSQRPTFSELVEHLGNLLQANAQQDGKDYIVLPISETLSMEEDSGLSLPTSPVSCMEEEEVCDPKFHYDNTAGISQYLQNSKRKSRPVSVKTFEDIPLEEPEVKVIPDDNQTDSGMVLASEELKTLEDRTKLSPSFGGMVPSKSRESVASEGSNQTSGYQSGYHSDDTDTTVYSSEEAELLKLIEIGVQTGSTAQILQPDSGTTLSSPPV
Experimental: as §3, §4

[8] = Solubility in fasted state simulated intestinal fluid; format: physicochemical; details: pH 6.5, fassif, kinetic from dmso stock, fasted state simulated intestinal fluid (pH6.5), 37° C.
Experimental: 2 μL of each dimethyl sulfoxide solutions containing test compounds were dispensed into wells of a 96-well plate, and 200 μL of fasted state simulated intestinal fluid (pH6.5) was added to each well. The plate was shaken at 37° C. for 20 hours. The solution was filtered through a membrane filter, and 101 μL of the filtrate was transferred to a UV plate, followed by addition of 100 μL of a solution mixture of ethanol:water=2:1 thereto. Separately, as a standard, 101 μL of a solution prepared by 2 μL of a dimethyl sulfoxide solution, 4 μL of dimethyl sulfoxide, 400 μL of ethanol, and 200 μL of water was transferred to a UV plate, and 100 μL of fasted state simulated intestinal fluid (pH6.5) was added thereto. The solubility was calculated by the following expression: Solubility=[(absorbance of test solution)−blank]/[(absorbance of standard solution)−blank]×165 μM (165 μM is the concentration of the standard solution) Composition of the fasted state simulated intestinal fluid (pH6.5)
The composition was prepared in compliance with the description in E. Galia, et al., Pharm. Res. 1998, 698.
Taurocholic acid (161 mg), L-α-phosphatidylcholine (59 mg), potassium dihydrogen phosphate (0.39 g), and potassium chloride (0.77 g) were added to about 90 mL of water. The resulting solution was adjusted to a pH of 6.5 with a sodium hydroxide aqueous solution and then diluted to a volume of 100 mL with water. The solution was filtered through a membrane filter.

[9] = test system: human colon cancer cell line HCT116 cells; experiment: Antitumor test, HCT116 transplanted subcutaneously in nude mice; format: in vivo, female Balb/c nude mouse; details: once a day for 12 days; for Tumor growth inhibition ratio (%): last administration day; for Decrease ratio in body weight (%): maximum decrease
Experimental: A cell suspension of human colon cancer cell line HCT116 cells was prepared using Hanks's solution, and 5.0×10^6 cells thereof were transplanted subcutaneously into the flank of each female Balb/c nude mouse. Oral administration of the test compound (once a day for 12 days) was started when the transplanted tumor volume reached 200 to 250 mm^3. The tumor volume was calculated by the expression: 0.5×(minor axis)^2×(major axis). The tumor growth inhibition ratio of tumor growth of the test compound to tumor growth of the reference group was determined.

[10] = Pharmacokinetics test, oral administration; format: in vivo; details: female, Balb/c nude, mouse, 100 mg/kg, plasma
Experimental: The compound according to the present invention and known Compound A were measured for pharmacokinetics. Each of the test compounds was orally administered to each female Balb/c nude mouse at a dose of 100 mg/kg, and concentrations of the compound in plasma 0.5, 2, 7, and 24 hours after the administration were quantitatively measured by LC-MS-MS.

[11] = test system: choroidal neovascularization; experiment: Laser coagulation-induced murine choroidal neovascularization model; format: in vivo, C57BL6J mice; details: for Average FA score: once a day for three days
Experimental: Laser coagulation was performed on two- to three-month-old C57BL6J mice (ten mice per group) by using a 408 nm semiconductor laser (DC-3000, Nidek). Both eyes were each irradiated at three positions with a spot size of 170 μm, an exposure time of 0.02 sec, and an output of 200 mW. The drug was orally administered once a day for three days beginning on the day of the laser coagulation. On the next day of the last administration, the mice were intravenously injected with 7 mg/kg of fluorescein. Five minutes after the injection, three fluorescent fundus images of each eye were taken (TRC-501X, Topcon) and stored in a CCD camera having 640×480 pixels as an image file. The total pixel brightness (0 to 1) in regions where fluorescein leakage was detected was used as an index (FA score) of choroidal neovascularization activity. The FA score was calculated by defining reference values such that the pixel brightness in a capillary region of a non-coagulated site is 0 and the pixel brightness on a main branch of the retinal blood vessel is 1.

Structure (SMILES) | IC50 [1] | IC50 [2] | IC50 [3] | inhibition at 0.0064 µM [4] | IC50 [5] | solubility at 20 h [8] | also measured
COCCOc1ccc(NC(=O)Nc2ccc(Oc3ccnc4[nH]ccc34)cc2)cc1C(F)(F)F [Compound 1, 1-[4-(2-methoxyethoxy)-3-(trifluoromethyl)phenyl]-3-[4-(1H-pyrrolo[2,3-b]pyridin-4-yloxy)phenyl]urea] | 2100 nM | 3.7 nM | 2600 nM | 98% | 3.2 nM |  | 
O=C(Nc1ccc(Oc2ccnc3[nH]ccc23)cc1)Nc1ccc(CCF)c(C(F)(F)F)c1 [Compound 21, 1-[4-(2-Fluoroethyl)-3-(trifluoromethyl)phenyl]-3-[4-(1H-pyrrolo[2,3-b]pyridin-4-yloxy)phenyl]urea] | 1300 nM | 4.4 nM | 860 nM | 100% |  |  | 
O=C(Nc1ccc(Oc2ccnc3[nH]ccc23)cc1)Nc1cc(CCF)cc(C(F)(F)F)c1 [Compound 22, 1-[3-(2-Fluoroethyl)-5-(trifluoromethyl)phenyl]-3-[4-(1H-pyrrolo[2,3-b]pyridin-4-yloxy)phenyl]urea] | 1300 nM | 5.4 nM | 630 nM | 96% | 14 nM | 16 µg/mL (≈ 34.9 µM) | IC50 [6]: 23 nM; IC50 [7]: 3.6 nM
O=C(Nc1ccc(Oc2ccnc3[nH]ccc23)cc1)Nc1ccc(OCCF)c(C(F)(F)F)c1 [Compound 15, 1-[4-(2-Fluoroethoxy)-3-(trifluoromethyl)phenyl]-3-[4-(1H-pyrrolo[2,3-b]pyridin-4-yloxy)phenyl]urea] | 2300 nM | 4 nM | 1200 nM | 100% | 11 nM |  | 
O=C(Nc1ccc(Oc2ccnc3[nH]ccc23)cc1)Nc1ccc(OC2CCOCC2)c(C(F)(F)F)c1 [Compound 7, 1-[4-(1H-Pyrrolo[2,3-b]pyridin-4-yloxy)phenyl]-3-[4-(tetrahydropyran-4-yloxy)-3-(trifluoromethyl)phenyl]urea] | 3200 nM | 3.9 nM | 860 nM | 99% | 6.9 nM |  | Tumor growth inhibition ratio (%) ([9]; 200 mg/kg oral): 97%; Decrease ratio in body weight (%) ([9]; 200 mg/kg oral): 3.6%
CNC(=O)c1cc(Oc2ccc(NC(=O)Nc3ccc(Cl)c(C(F)(F)F)c3)cc2)ccn1 [Compound A, BAY 43-9006, reference compound] |  |  |  |  |  | 6 µg/mL (≈ 12.9 µM) | AUC [10]: 189 µg·h/mL; Cmax [10]: 19200 ng/mL; inhibition of the angiogenesis (in words) ([11]; 100 mg/kg): did not significantly inhibit; Average FA score ([11]; 100 mg/kg oral): 7.258
COCCOc1ccc(NC(=O)Nc2ccc(Oc3ccnc4[nH]ncc34)cc2)cc1C(F)(F)F [Compound 2, 1-[4-(2-Methoxyethoxy)-3-(trifluoromethyl)phenyl]-3-[4-(1H-pyrazolo[3,4-b]pyridin-4-yloxy)phenyl]urea] |  |  |  | 82% |  |  | 
O=C(Nc1ccc(Oc2ccnc3[nH]ncc23)cc1)Nc1ccc(CCCF)c(C(F)(F)F)c1 [Compound 19, 1-[4-(3-Fluoro-propyl)-3-(trifluoromethyl)phenyl]-3-[4-(1H-pyrazolo[3,4-b]pyridin-4-yloxy)phenyl]urea] | 2400 nM | 1.8 nM | 300 nM | 98% | 18 nM | 16 µg/mL (≈ 33.8 µM) | Tumor growth inhibition ratio (%) ([9]; 100 mg/kg oral): 89%; Decrease ratio in body weight (%) ([9]; 100 mg/kg oral): 4.9%
O=C(Nc1ccc(Oc2ccnc3[nH]ccc23)cc1)Nc1ccc(CCCF)c(C(F)(F)F)c1 [Compound 11, 1-[4-(3-Fluoropropyl)-3-(trifluoromethyl)phenyl]-3-[4-(1H-pyrrolo[2,3-b]pyridin-4-yloxy)phenyl]urea] | 1600 nM | 5.8 nM | 650 nM | 82% | 9.7 nM | 14 µg/mL (≈ 29.6 µM) | Tumor growth inhibition ratio (%) ([9]; 100 mg/kg oral): 89%; Decrease ratio in body weight (%) ([9]; 100 mg/kg oral): 7.8%
O=C(Nc1ccc(Oc2ccnc3[nH]ccc23)cc1)Nc1ccc(Oc2ccc(F)cc2)c(C(F)(F)F)c1 [Compound 58, 1-[4-(4-Fluorophenoxy)-3-(trifluoromethyl)phenyl]-3-[4-(1H-pyrrolo[2,3-b]pyridin-4-yloxy)phenyl]urea] |  |  |  |  |  |  | inhibition of the angiogenesis (in words) ([11]; 50 mg/kg): significantly inhibited; Average FA score ([11]; 50 mg/kg oral): 7.127; Average FA score ([11]; 100 mg/kg oral): 6.664
